Experiments:
[1] = system: breast cancer TILs against autologous tumor cells; experiment: Chromium (51Cr) release cytotoxicity assay, breast cancer TILs; type: cell-based, human; conditions: synthetic ADO, 48 hours
Protocol: Chromium (51Cr) release cytotoxicity assay
Chromium (51Cr) release assay was used to measure the autologous TILs-mediated cytotoxicity against the established patient-derived breast and […] cell lines. Briefly, breast and sarcoma tumor cells were labelled with 51Cr (PerkinElmer) as target cells and seeded on 96-well V-bottom plate (Corning) at 5 000cells/well. Effector TILs were added at the indicated Effector: Target (E:T) ratios. The supernatants were collected carefully into LUMA plates (PerkinElmer) after 24 and 48 hours of co-culture. After drying overnight, radioactivity of the plate was read with MicroBeta2 (PerkinElmer).
Relative adenosine production assay
An ectonucleotidase CD73 assay was optimized to measure the relative ADO production based on competitive AMP blockade and presence of CD73+ cells. Day five patient-derived sarcoma spheroids were digested and split into triplicates in X-VIVO20 and 1% PS culture media with an excessive amount of AMP at 0.4mM (Sigma-Aldrich) incubated for 30 minutes.
After 1500 RPM was applied for three minutes, 25 μL supernatant were removed and mixed with 25 μL of 200 μM ATP (Sigma-Aldrich) in the same media. 25 μL of this mixture was added to a white opaque OptiPlate (PerkinElmer) containing 25 μL Cell-Titer Glo reagent (Promega, US). Relative luminescence unit (RLU) can be read on SPARK 10M plate reader with an integration time of 100ms. […]

[2] = system: pAMPK in CD4 and CD8 T cells; experiment: Extracellular ADO uptake assay via pAMPK staining; type: cell-based, human; conditions: antagonist 12 µM, 50 µM exogenous adenosine, n=7 healthy donors
Protocol: Experimental setup was adopted from a previous study whereby AR antagonist was added to pretreat cells before exogenous adenosine treatment for intracellular and cytokine staining.[37] In brief, PBMCs were treated with 12 µM of A2BAR antagonists for 90 min before the addition of 50 µM of adenosine for 2 hours. Cells were harvested after 3 hours of CD3/CD28 bead stimulation before intracellular staining with phosphor-AMPK (Thr183, Thr172) rabbit primary antibody (Thermo Fisher Scientific) and antirabbit secondary antibody (BD biosciences).
Figure 4 Rescue of lymphocyte proinflammatory cytokine production IFNy and perforin by A2BAR antagonism. (A,B) Inhibition of extracellular adenosine uptake via phosphorylated-AMP activated protein kinase (pAMPK) staining (n=7 healthy donors). Production of proinflammatory cytokines—(C,D) IFNy and (E) perforin in CD4 (n=5 healthy donors) and CD8 (n=6 healthy donors) T cells. Expression of CD69 adhesion molecule in (F). CD4 (n=7 healthy donors) and (G) CD8 (n=4 healthy donors) T cells. A2BAR antagonist 12 µM was added. Outlier is presented as diamond shape and defined by Tukey’s rule, which is not included in statistical analysis. Box plots with minimum, first quartile, median, third quartile, and maximum are presented. Normalized fold change is based on percent values compared with untreated controls. Unpaired and non-parametric statistical analysis—Mann-Whitney test was performed against untreated control with *p<0.05, **p<0.01, ***p<0.001, and ****p<0.0001.

[3] = molecular target: T1, human A3AR (Homo sapiens, UniProt P0DMS8); experiment: Radioligand binding, human A3AR ([3H]NECA, transfected HeLa cells); conditions: displacement of [3H]NECA, n=3, racemic mixtures
T1 construct: expressed in transfected cells; host or cells: HeLa
T1 sequence (P0DMS8 1-318): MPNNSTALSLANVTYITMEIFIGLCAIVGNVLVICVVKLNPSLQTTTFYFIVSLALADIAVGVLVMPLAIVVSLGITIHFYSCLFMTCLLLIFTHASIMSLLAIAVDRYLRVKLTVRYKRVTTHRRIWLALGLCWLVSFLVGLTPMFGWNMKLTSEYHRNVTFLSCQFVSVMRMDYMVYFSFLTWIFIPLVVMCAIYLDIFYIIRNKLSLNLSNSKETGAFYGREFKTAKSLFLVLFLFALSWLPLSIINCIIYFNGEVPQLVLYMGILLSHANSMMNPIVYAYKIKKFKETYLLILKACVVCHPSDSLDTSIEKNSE
Protocol: The affinity and selectivity profiles of the ligands obtained was studied in vitro, radioligand binding assays, at the four human specific ARs subtypes, using experimental protocols previously described.[28–30] All ligands were prepared and tested as racemic mixtures. […] Non-specific binding was determined in the presence of R-PIA 10 µM for A1AR, NECA 50 µM for A2AAR, NECA 400 μΜ for A2BAR and R-PIA 100 μΜ for A3AR.

Row | Ki ([3]; read-out: Ki hA3) [µM] | Ki hA3 [3] | Compound | Rescue of killing of breast cancer TILs against autologous tumor cells [1] | pAMPK (extracellular ADO uptake) in CD4 T cells [2] | pAMPK (extracellular ADO uptake) in CD8 T cells [2]
1 | > 1 | – | CC1=C(C(=O)OC(C)C)C(c2ccco2)n2c(nc3ccccc32)N1Cc1ccccc1F (stereo not shown) [ISAM-R56A] | rescued killing | significantly downregulated pAMPK | significantly downregulated pAMPK
2 | – | devoid of affinity | CC1=C(C(=O)OC(C)C)C(c2ccoc2)n2c(nc3cc(Cl)ccc32)N1 (stereo not shown) [ISAM-M89A] | rescued killing | – | significantly inhibited ADO uptake

Reference: publication PMC9115112, “A2B adenosine receptor antagonists rescue lymphocyte activity in adenosine-producing patient-derived cancer models” (Journal for Immunotherapy of Cancer, 2022)
